Positions count from the first letter of the chain named. Values joined by “and” are separate entries in the source; they are usually repeats but may differ in a detail not shown here. Equal entries are not always repeated.
Legend:
Type in all cases: cell-based
hTA1 C178S = target: T1, hTA1 C178S (Homo sapiens, UniProt Q96RJ0, C178S); assay: GloSensor cAMP accumulation assay, C178S mutant; conditions: for C178S - Normalized Luminescence Counts (N=2): log[Compound], single replicates
T1 construct: expressed in transfected cells; host or cells: HEK293T
T1 sequence (Q96RJ0 1-339 C178S): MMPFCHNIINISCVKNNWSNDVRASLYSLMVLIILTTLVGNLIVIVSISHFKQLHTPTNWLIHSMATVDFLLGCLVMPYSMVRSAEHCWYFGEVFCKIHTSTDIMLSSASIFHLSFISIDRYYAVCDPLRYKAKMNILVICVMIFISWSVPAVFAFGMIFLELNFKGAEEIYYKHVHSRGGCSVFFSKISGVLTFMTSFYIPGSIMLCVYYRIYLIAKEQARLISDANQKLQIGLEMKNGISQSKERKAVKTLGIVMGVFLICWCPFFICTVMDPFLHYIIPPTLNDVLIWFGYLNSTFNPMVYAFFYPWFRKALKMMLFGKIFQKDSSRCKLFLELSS

hTA1 I290N = target: T2, hTA1 I290N (Homo sapiens, UniProt Q96RJ0, I290N); assay: GloSensor cAMP accumulation assay, I290N mutant;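 also: cells transiently co-expressing hTA1 and the GloSensor cAMP biosensor, luminescence read 30 min after compound addition at room temperature, efficacy scaled to the maximal β-PEA response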
T2 construct: expressed in transfected cells; host or cells: HEK293T
T2 sequence (Q96RJ0 1-339 I290N): T1 sequence (Q96RJ0 1-339 C178S) with S178C, I290N

hTA1 C13S = target: T3, hTA1 C13S (Homo sapiens, UniProt Q96RJ0, C13S); assay: GloSensor cAMP accumulation assay, C13S mutant; conditions: for C13S - Normalized Luminescence Counts (N=2): log[Compound], single wells
T3 construct: expressed in transfected cells; host or cells: HEK293T
T3 sequence (Q96RJ0 1-339 C13S): T1 sequence (Q96RJ0 1-339 C178S) with C13S, S178C

hTA1 T271A = target: T4, hTA1 T271A (Homo sapiens, UniProt Q96RJ0, T271A); assay: GloSensor cAMP accumulation assay, T271A mutant
T4 construct: expressed in transfected cells; host or cells: HEK293T
T4 sequence (Q96RJ0 1-339 T271A): T1 sequence (Q96RJ0 1-339 C178S) with S178C, T271A

hTA1 S107C = target: T5, hTA1 S107C (Homo sapiens, UniProt Q96RJ0, S107C); assay: GloSensor cAMP accumulation assay, S107C mutant;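 also: cells transiently co-expressing receptor and GloSensor biosensor, luminescence read after 30 min agonist exposure at room temperature, concentration-response fitted by nonlinear regression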
T5 construct: expressed in transfected cells; host or cells: HEK293T
T5 sequence (Q96RJ0 1-339 S107C): T1 sequence (Q96RJ0 1-339 C178S) with S107C, S178C

[1] = C178S, each row one experiment (N=2), 3 replicates

## Cc1c(F)cccc1[C@H]1COC(N)=N1 [Ro5263397]
hTA1 C178S; [1]
  pEC50 values, Mean: 8.162 and 8.579
  ΔpEC50 values (each mutant value - WT average), Mean: -0.6693 and -0.2522
hTA1 C178S; C178S, n=2
  Span ± SEM (Emax normalized to β-PEA): 105.17
  pEC50 ± SEM: 8.37 ± 0.09
hTA1 C178S; C178S, n=2, read-out: EC50
  EC50: 4.26 nM
hTA1 C178S; C178S, relative to β-PEA
  Emax: 105.2%
hTA1 C178S; C178S, β-PEA = 100, each row one experiment (N=2), 3 replicates
  Emax values, Mean: 92.0056 and 118.332
hTA1 C178S; M = -5
  C178S - Normalized Luminescence Counts (N=2): 116.512 and 98.9884 and 102.82 and 110.453 and 111.171 and 57.8292
hTA1 C178S; M = -5.522
  C178S - Normalized Luminescence Counts (N=2): 90.6706 and 92.2127 and 73.4274 and 137.917 and 164.274 and 131.185
hTA1 C178S; M = -6
  C178S - Normalized Luminescence Counts (N=2): 100.344 and 93.0071 and 81.792 and 122.18 and 154.88 and 155.328
hTA1 C178S; M = -6.522
  C178S - Normalized Luminescence Counts (N=2): 92.3996 and 91.979 and 98.7081 and 121.313 and 114.761 and 110.333
hTA1 C178S; M = -7
  C178S - Normalized Luminescence Counts (N=2): 78.9882 and 76.0443 and 77.119 and 120.565 and 138.096 and 118.74
hTA1 C178S; M = -7.522
  C178S - Normalized Luminescence Counts (N=2): 86.6519 and 72.9134 and 81.9322 and 98.8752 and 109.017 and 95.5544
hTA1 C178S; M = -8
  C178S - Normalized Luminescence Counts (N=2): 48.9411 and 58.2403 and 50.0626 and 103.512 and 85.5323 and 112.428
hTA1 C178S; M = -8.522
  C178S - Normalized Luminescence Counts (N=2): 29.268 and 30.1559 and 35.3428 and 67.4924 and 67.6121 and 48.0464
hTA1 C178S; M = -9
  C178S - Normalized Luminescence Counts (N=2): 15.623 and 14.3146 and 15.5763 and 45.7428 and 46.9395 and 50.4398
hTA1 C178S; M = -9.522
  C178S - Normalized Luminescence Counts (N=2): 4.128 and 7.025 and 6.23 and 17.8303 and 18.7278 and 23.3949
hTA1 C178S; M = -10
  C178S - Normalized Luminescence Counts (N=2): 3.707 (2×) and 2.258 and 5.325 and 8.915 and 9.424
hTA1 C178S; M = -10.522
  C178S - Normalized Luminescence Counts (N=2): 1.885 and 0.4359 and 0.8097 and 2.513 and 2.752 and 5.684
hTA1 C178S; M = -11
  C178S - Normalized Luminescence Counts (N=2): 0.4826 and 1.043 and -0.5921 and 4.667 and 6.223 and 4.577
hTA1 C178S; M = -11.522
  C178S - Normalized Luminescence Counts (N=2): 0.9967 and 0.3892 and 0.01533 and 3.919 and 5.445 and 4.457
hTA1 C178S; M = -12
  C178S - Normalized Luminescence Counts (N=2): 2.258 and 1.511 (2×) and 2.7223 and 4.936 and 4.158
hTA1 C178S; M = -12.522
  C178S - Normalized Luminescence Counts (N=2): 0.1555 and 0.7163 and 0.9032 and 5.3849 and 3.7993 and 4.607
hTA1 I290N; I290N, n=2
  Span ± SEM (Emax normalized to β-PEA): 83.69 ± 1.69
  pEC50 ± SEM: 8.33 ± 0.07
hTA1 I290N; I290N, n=2, read-out: EC50
  EC50: 4.63 nM
hTA1 I290N; hTA1 I290N (N=2), log[Compound], M = -5
  cAMP accumulation response, single replicate values (source data, Supplementary Figure 5): 101.804 and 110.08 and 95.4137 and 103.531
hTA1 I290N; hTA1 I290N mutant minus WT average
  ΔpEC50 values (each mutant value - WT average), Mean: -0.535 and -0.459
hTA1 I290N; hTA1 I290N mutant, Figure 3B source data, each grid row a separate experiment, 3 replicates
  pEC50 values, Mean: 8.296 and 8.372
hTA1 I290N; hTA1 I290N mutant, β-PEA set to 100, each grid row a separate experiment, 3 replicates
  Emax values, Mean: 85.3822 and 81.9937
hTA1 C13S; C13S, Mean of fit per experiment
  Emax values: 73.5469 and 88.9072
hTA1 C13S; C13S, n=2
  Span ± SEM (Emax normalized to β-PEA): 81.23 ± 7.68
  pEC50 ± SEM: 8.6 ± 0.08
hTA1 C13S; C13S, n=2, read-out: EC50
  EC50: 2.48 nM
hTA1 C13S; hTA1 C13S, mean of 3 replicates, one line per independent experiment
  pEC50 values, Mean: 8.7547 and 8.4539
hTA1 C13S; M = -5
  C13S - Normalized Luminescence Counts (N=2): 76.1278 and 93.1423 and 84.8444 and 95.4829 and 105.462 and 103.819
hTA1 C13S; M = -5.522
  C13S - Normalized Luminescence Counts (N=2): 68.8196 and 89.374 and 78.4497 and 85.6471 and 106.265 and 88.9317
hTA1 C13S; M = -6
  C13S - Normalized Luminescence Counts (N=2): 64.1759 and 93.599 and 66.6881 and 75.8649 and 92.3769 and 86.7896
hTA1 C13S; M = -6.522
  C13S - Normalized Luminescence Counts (N=2): 56.487 and 80.4671 and 60.7882 and 74.8831 and 89.3601 and 80.042
hTA1 T271A; T271A mutant minus WT average, Figure 5B
  ΔpEC50 values (each mutant value - WT average), Mean: -0.5707 and -0.4899
hTA1 T271A; T271A mutant, Figure 5B, each row one independent experiment (3 replicates)
  pEC50 values, Mean: 8.26 and 8.341
hTA1 T271A; T271A mutant, Figure 5B, β-PEA = 100, each row one independent experiment (3 replicates)
  Emax values, Mean: 76.005 and 87.3949
hTA1 T271A; T271A, n=2
  Span ± SEM (Emax normalized to β-PEA): 81.70 ± 5.69
  pEC50 ± SEM: 8.3 ± 0.07
hTA1 T271A; T271A, n=2, read-out: EC50
  EC50: 5 nM
hTA1 S107C; S107C
  decrease in potency vs wild type: approximately 100 fold
hTA1 S107C; S107C mutant minus WT average
  ΔEmax values (each mutant value - WT average): 21.9095
hTA1 S107C; S107C mutant, each line an independent experiment, 3 replicates
  pEC50 values, Mean: 7.847 and 7.402
hTA1 S107C; S107C mutant, β-PEA = 100, each line an independent experiment, 3 replicates
  Emax values, Mean: 108.613 and 99.8921
hTA1 S107C; S107C, n=2
  Span ± SEM (Emax normalized to β-PEA): 112.19
  pEC50 ± SEM: 6.61 ± 0.80
hTA1 S107C; S107C, n=2, read-out: EC50
  EC50: 248 nM
